# Literature values as cited in PMC7253076 (Cell chemical biology, 2019).
# Tested on: SOD1^G93A mutant rats
# Details: late-stage SOD1^G93A mutant rats; ref Trias et al., 2016; cited from earlier work
compound,measurement,value
Cc1ccc(NC(=O)c2ccc(CN3CCN(C)CC3)cc2)cc1Nc1nc(-c2cccnc2)cs1 [masitinib],effect on microgliosis and disease progression,attenuate microgliosis and slow disease progression
